Here are results for five compounds from US20080125453A1 (TIBER LABORATORIES, LLC, priority 2001, published 2008).

Where a name gives a salt, the structure may show the parent alone.

The conditions of data set [1]: background statement; cited from earlier work.
The format of data set [2] is physicochemical. On the procedure:
The salt of the active ingredient, corresponding to an amount of free base present in a final batch size of 1 kg was dissolved in 100 ml of purified water. 120 ml of purified water was placed in a 600 ml beaker and stirred. While stirring, 3 g of MAS was added in small portions to obtain a dispersion. The amount of MAS used is a part of the total amount of MAS to be used in the formulation. Once the MAS was dispersed, tannic acid was added to the mixture and stirred to form a uniform dispersion. Three different batches of the MAS/tannic acid dispersion in purified water were prepared for each active. In the three batches, the amount of tannic acid used in the batch may vary from an amount equal to that of the free base, to two time to three times that of the free base present in the initial salt solution.
The salt solution was then added in small portions, under light stirring, to the MAS/Tannic acid dispersion. After all of the salt solution was added, the volume was made up to 250 ml with purified water and stirring was continued for a period of 10 minutes.
The MAS was used in this step to serve as an adherent or a solid support for the tannic acid molecules to facilitate the conversion process.

Take `CNC[C@H](O)c1cccc(O)c1` [Phenylephrine hydrochloride]: in data set [1], the solubility in water entry is recorded as “freely soluble”. `CNC[C@H](O)c1cccc(O)c1` [phenylephrine]: the “solubility of the tannate salt in purified water” value in data set [2] is “partial solubility”. Turning to `COc1ccc(CN(CCN(C)C)c2ccccn2)cc1` [maleate salt, N-[(4-methoxyphenyl)methyl]-N′,N′-dimethyl- -N-2-pyridinyl-1,2-ethanediamine], the solubility in water result in data set [1] is on record as “slightly soluble”.

Regarding `COc1ccc(CN(CCN(C)C)c2ccccn2)cc1` [pyrilamine], the “precipitate formation on addition to MAS/tannic acid dispersion” value in data set [2] (purified water, at all three concentrations of tannic acid (1x, 2x, 3x the free base)) is “copious amounts of precipitate”. Turning to `COc1ccc(CN(CCN(C)C)c2ccccn2)cc1` [Pyrilamine hydrochloride, N-[(4-methoxyphenyl)methyl]-N′,N′-dimethyl- -N-2-pyridinyl-1,2-ethanediamine], in data set [1], the solubility in water result is listed as “freely soluble”.
